Measured values reported in paper PMC11933327, “Asymmetric activation of dimeric ATM/Tel1 kinase” (Cell Discovery, 2025).

Legend:
ATM/Tel1 = assay: Endogenous activation of ATM/Tel1 in cultured yeast cells; assay type: cell-based, Schizosaccharomyces pombe; conditions: 0.05% MMS added at OD600 ≈ 4, cells collected 60 min later
Description: (§1) Purification of Yeast ATM/Tel1
(§2) S. pombe stain CC5060 (h–leu1-32 ura4- D18 kanMX6:nmt1:TAP-tel1)[1] was grown in YPD medium to the stationary phase. 0.05% MMS(MACKLIN)was added at OD600 ≈ 4 and c ells were collected 60 min later. About 100 g cells were harvested, washed, and resuspended in extraction buffer (50 mM HEPES [pH 7.6], 300 mM ammonium sulfate, 0.5 mM EDTA, 5 mM β-ME, 10% (v/v) glycerol, 0.01% (v/v) NP-40 and protease inhibitors), and a whole-cell extraction was prepared as previously described. This whole -cell extract was selectively precipitated in 30-55% ammonium sulfate and resuspended using binding buffer (50 mM HEPES [pH 7.6], 1 mM EDTA, 10 mM ZnCl2, 5 mM β- ME, and protease inhibitors). […] The ATM/Tel1 elution was flash- frozen in liquid nitrogen, and analyzed by SDS-PAGE and EM examination.
(§3) Expression and Purification of full-length CHK2, MRN (Mre11, Rad50-core, Nbs1) The codon-optimized gene fragments for human full- length CHK2, yeast Mre11, Rad50-core (lacking the coiled-coil motif) were cloned into the pET22b vector with a C-terminal 6× His tag and Nbs1 were cloned into the pET22b vector with a C-terminal 6× His tag and a GST tag, and transformed into E. coli BL21(DE3). […] The eluted CHK2 and MRN proteins were flash-frozen in liquid nitrogen and analyzed by SDS-PAGE and EM. […]

human ATM = conditions: ref [5] Howes, A. C., Perisic, O. & Williams, R. L. Sci. Adv. 9, eadi8291 (2023); cited from earlier work
Excerpt: Based on a radiolabeled ATP-based kinase assay, which is the “gold standard” for the quantification of protein kinase activity, we managed to achieve a 30-fold increase in ATM/Tel1 activity (Fig. 1a; Supplementary Fig. S3). This level of activati ...

active ATM/Tel1 = biological target: T1, active ATM/Tel1 (Schizosaccharomyces pombe, UniProt O74630); assay: Surface plasmon resonance, CHK2 immobilized, active ATM/Tel1; assay type: binding; conditions: 20 °C, experiment independently repeated three times
T1 construct: TAP (N, cleaved yes); made in house; host or cells: Schizosaccharomyces pombe strain CC5060 (TAP-tel1 under the nmt1 promoter), treated with 0.05% MMS
Description: as §1
as §2, with “described.” for “described. This whole -cell extract was selectively precipitated in 30-55% ammonium sulfate and resuspended using binding buffer (50 mM HEPES [pH 7.6], 1 mM EDTA, 10 mM ZnCl2, 5 mM β- ME, and protease inhibitors).”
as §3
(§4) to SDS- PAGE and analyzed by Western blot (WB) using pan- acetylated -Lysine (Rabbit monoclonal, Cat# 9441S, Cell Signaling Technology). and phospho-ATM/ATR substrate (pSQ/pTQ motif, Rabbit monoclonal, Cat# 6966, Cell Signaling Technology) antibodies. […]

active ATM/Tel1 dimer = assay: Cryo-EM structure of active ATM/Tel1 with substrate peptide; assay type: binding, Schizosaccharomyces pombe; conditions: cryo-EM Structure 2, 3.6 Å; active ATM/Tel1 : 329 bp DNA : CHK2 peptide 1:20:200 with AMP-PNP, on ice 1 h
Description: The affinity chromatography sample of ATM/Tel1 was diluted to final concentrations of 0.05 mg/ml (50 mM HEPES [pH 7.6], 0.01% (v/v) NP- 40, 1 mM EDTA, 10 mM ZnCl 2, 5 mM β- ME, and protease inhibitors). Negative staining was used to evaluate the protein quality. In brief, 3 µl of freshly purified ATM/Tel1 was applied onto copper grids supported by a thin layer of glow - discharged carbon film (Zhongjingkeyi Technology Co., Ltd). After adsorption for 30 s, uranyl acetate (2% w/v) was used for negative staining at room temperature. The negatively stained grids were examined using FEI Talos L120C operated at 120 KeV. […]
The grids were imaged in a Titan Krios cryo-electron microscope (Thermo Fisher Scientific) operated at 300 keV at a magnification of 81,000 × (corresponding to a calibrated sampling of 1.07 Å per pixel). Movies were recorded by EPU with a Gatan K3 Summit direct electron detector, where each movie was composed of 32 individual frames with an exposure time of 3.8 s and a dose rate of 50 electrons per second per Å2. […]
Beam-induced sample motions were corrected using MotionCorr2[3] software, and contrast transfer function (CTF) parameters were estimated using CTFFIND4[4] software. […] All reported resolutions were calculated from gold standard refinement procedures with the FSC = 0.143 criterion implemented in cryoSPARC[5]. […]

basal ATM/Tel1 = biological target: T2, basal ATM/Tel1 (Schizosaccharomyces pombe, UniProt O74630); assay: Surface plasmon resonance, CHK2 immobilized, basal ATM/Tel1; assay type: binding; conditions: 20 °C, experiment independently repeated three times
T2 construct: we endogenously purified basal; TAP (N, cleaved yes); made in house; host or cells: Schizosaccharomyces pombe strain CC5060 (TAP-tel1 under the nmt1 promoter)
Description: as §1
as §2, with “described.” for “described. This whole -cell extract was selectively precipitated in 30-55% ammonium sulfate and resuspended using binding buffer (50 mM HEPES [pH 7.6], 1 mM EDTA, 10 mM ZnCl2, 5 mM β- ME, and protease inhibitors).”
as §3, §4

T2 sequence (O74630 whole entry): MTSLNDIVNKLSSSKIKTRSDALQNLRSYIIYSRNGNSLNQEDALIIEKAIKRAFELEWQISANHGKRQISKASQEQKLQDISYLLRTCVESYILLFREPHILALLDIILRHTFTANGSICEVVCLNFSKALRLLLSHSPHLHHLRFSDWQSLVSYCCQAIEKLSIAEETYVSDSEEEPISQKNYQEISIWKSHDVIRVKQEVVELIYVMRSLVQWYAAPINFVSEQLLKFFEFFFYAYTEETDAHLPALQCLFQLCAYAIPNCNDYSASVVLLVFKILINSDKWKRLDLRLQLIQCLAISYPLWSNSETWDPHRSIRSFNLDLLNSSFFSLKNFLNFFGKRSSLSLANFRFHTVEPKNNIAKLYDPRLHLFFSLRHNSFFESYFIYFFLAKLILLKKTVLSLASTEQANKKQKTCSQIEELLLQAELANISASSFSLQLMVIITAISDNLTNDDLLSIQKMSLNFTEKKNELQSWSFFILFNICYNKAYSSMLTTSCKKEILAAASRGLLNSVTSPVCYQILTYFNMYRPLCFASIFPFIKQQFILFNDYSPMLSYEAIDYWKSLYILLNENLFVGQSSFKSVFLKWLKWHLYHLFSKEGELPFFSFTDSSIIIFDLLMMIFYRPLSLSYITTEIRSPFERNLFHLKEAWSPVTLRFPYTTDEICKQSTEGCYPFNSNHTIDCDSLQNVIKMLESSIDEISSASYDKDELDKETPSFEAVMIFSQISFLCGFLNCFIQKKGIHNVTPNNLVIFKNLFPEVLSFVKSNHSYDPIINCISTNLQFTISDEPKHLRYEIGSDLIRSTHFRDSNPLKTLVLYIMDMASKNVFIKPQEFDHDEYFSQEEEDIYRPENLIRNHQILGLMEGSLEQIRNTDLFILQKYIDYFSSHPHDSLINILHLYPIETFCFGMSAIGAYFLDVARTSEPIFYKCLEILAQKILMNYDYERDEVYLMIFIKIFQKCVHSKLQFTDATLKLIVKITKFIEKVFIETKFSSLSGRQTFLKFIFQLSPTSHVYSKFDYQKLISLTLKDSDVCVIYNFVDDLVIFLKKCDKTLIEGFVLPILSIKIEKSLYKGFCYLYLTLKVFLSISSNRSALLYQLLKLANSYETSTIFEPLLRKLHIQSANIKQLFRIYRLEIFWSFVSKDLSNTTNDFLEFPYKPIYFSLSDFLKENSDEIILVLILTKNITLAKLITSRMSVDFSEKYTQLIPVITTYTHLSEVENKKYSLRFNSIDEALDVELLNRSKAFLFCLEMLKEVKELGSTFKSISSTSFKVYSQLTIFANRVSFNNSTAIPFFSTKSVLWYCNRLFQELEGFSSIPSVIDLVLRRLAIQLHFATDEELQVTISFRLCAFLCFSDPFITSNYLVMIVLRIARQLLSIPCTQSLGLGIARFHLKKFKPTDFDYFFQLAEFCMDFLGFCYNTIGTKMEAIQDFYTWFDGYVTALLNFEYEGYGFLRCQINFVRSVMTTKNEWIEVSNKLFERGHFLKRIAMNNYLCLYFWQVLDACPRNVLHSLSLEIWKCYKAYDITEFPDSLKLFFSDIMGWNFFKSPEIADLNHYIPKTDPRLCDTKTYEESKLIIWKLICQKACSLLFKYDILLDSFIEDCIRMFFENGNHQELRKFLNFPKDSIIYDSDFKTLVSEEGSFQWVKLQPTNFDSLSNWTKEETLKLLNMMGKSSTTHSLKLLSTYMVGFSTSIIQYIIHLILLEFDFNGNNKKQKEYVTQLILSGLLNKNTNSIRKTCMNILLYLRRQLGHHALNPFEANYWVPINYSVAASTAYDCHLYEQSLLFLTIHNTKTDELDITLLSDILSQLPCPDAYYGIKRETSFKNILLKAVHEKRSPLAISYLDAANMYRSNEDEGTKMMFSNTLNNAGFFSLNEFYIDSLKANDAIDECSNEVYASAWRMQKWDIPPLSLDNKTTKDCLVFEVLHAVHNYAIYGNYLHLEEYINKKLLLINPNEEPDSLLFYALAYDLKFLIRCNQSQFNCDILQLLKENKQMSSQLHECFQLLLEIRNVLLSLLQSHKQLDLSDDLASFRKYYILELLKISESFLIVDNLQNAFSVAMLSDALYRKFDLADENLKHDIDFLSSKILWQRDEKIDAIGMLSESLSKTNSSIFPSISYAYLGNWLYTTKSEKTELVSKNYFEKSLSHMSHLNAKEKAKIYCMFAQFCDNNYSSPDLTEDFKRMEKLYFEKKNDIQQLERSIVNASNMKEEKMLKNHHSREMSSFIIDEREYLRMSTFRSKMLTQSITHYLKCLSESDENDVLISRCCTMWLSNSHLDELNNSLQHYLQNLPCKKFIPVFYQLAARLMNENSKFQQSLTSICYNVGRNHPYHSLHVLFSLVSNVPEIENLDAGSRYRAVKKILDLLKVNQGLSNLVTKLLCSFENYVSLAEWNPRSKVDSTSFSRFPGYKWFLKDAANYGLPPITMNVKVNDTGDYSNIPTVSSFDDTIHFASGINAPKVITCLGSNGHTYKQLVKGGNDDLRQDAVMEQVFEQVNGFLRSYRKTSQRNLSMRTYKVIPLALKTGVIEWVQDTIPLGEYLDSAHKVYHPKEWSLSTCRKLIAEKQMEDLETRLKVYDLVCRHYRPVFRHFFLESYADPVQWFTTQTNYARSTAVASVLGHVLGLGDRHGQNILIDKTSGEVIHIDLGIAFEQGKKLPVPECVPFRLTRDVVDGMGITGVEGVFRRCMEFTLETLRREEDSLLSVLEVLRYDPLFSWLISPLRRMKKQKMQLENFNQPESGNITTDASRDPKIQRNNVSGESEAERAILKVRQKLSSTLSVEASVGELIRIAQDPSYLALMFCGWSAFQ
T1 sequence (O74630 whole entry): as above

COS(C)(=O)=O [methylmethane sulfonate]
activation of cellular ATM/Tel1 (in words) (ATM/Tel1): endogenously activated the cellular ATM/Tel1

OO [H2O2]
level of activation of human ATM in vitro compared with the 30-fold activation of ATM/Tel1 (human ATM): comparable

LETVSTQELYSI [CHK2 peptide, 12-residue human CHK2 substrate peptide 63-74, custom-synthesized by Sangon, with an N-terminal NH2 and C-terminal COOH]
affinity for active ATM/Tel1 relative to full-length CHK2 (active ATM/Tel1; SPR (Supplementary Fig. S7)): comparable to that of the full-length CHK2
binding affinity for active ATM/Tel1 (in words) (active ATM/Tel1; SPR (Supplementary Fig. S7a)): increased affinity in the active state
monomers of the active dimer that bind the substrate peptide (active ATM/Tel1 dimer): only Mono1, but not Mono2, can bind to the CHK2 peptide
reduction of affinity for basal ATM/Tel1 compared to the active state (basal ATM/Tel1; SPR (Supplementary Fig. S7)): over 120 fold
binding affinity for basal ATM/Tel1 (in words) (basal ATM/Tel1; SPR (Supplementary Fig. S7b)): significantly lower affinity
